The source of these data is paper PMC5737775 (Journal of Alzheimer's disease : JAD, 2017).

In data set [1] the target is rAβ42 (Aβ1-42) aggregation (Homo sapiens, UniProt P05067). The data set is described as follows: Thioflavin T assay of Aβ42 aggregation. The format is biochemical. Particulars: for anti-aggregation activity, result in words: Aβ1-42, 48 h, thioflavin T, 1, 3, 10, 30 μM.
The subject of data set [2] is peritoneal macrophages. The experiment in a line: MTT cytotoxicity assay on peritoneal macrophages. The format is cell-based, C57Bl/6 mice. Particulars: for cell viability (MTT): at the concentrations tested (1, 3, 10, 30 μM). On the technique in general: Tetrazolium dyes change colour on reduction, which living cells bring about.
The test system of data set [3] is IL-6 production by peritoneal macrophages stimulated with LPS. The data set is described as follows: IL-6 secretion by LPS-stimulated murine peritoneal macrophages. The format is cell-based, C57Bl/6 mice. To be noted: for inhibition of IL-6 at 30 μM: 30 μM compound, LPS 10 ng/mL; for anti-inflammatory activity (IL-6 secretion), result in words: LPS-stimulated macrophages, 1, 3, 10, 30 μM.

Chain of rAβ42 (Aβ1-42) aggregation (P05067 672-713 limits assumed): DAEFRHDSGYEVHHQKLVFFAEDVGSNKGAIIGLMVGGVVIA

Turning to `C#CCOc1ccc(/C=C/C(=O)CC(=O)/C=C/c2ccc(OCC#C)c(OC)c2)cc1OC` [Compound 2, (1E,6E)-1,7-bis(3-methoxy-4-(prop-2-yn-1-yloxy)phenyl)hepta-1,6-diene-3,5-dione], the “anti-aggregation activity, result in words” value (“anti-aggregation activity” for short) in data set [1] is “did not present anti-aggregation activity”.
In the case of `COc1cc(/C=C/C(O)=C/C(=O)/C=C/c2ccc(OCc3ccccc3)c(OC)c2)ccc1O` [Compound 3, (1E, 4Z, 6E)-1-(4-(benzyloxy)-3-methoxyphenyl)-5-hydroxy-7-(4-hydroxy-3-metho-xyphenyl)hepta-1,4,6-trien-3-one], the “anti-aggregation activity” value in data set [1] is “inhibited the aggregation of Aβ in a concentration-dependent manner”.
As to `COc1cc(/C=C/C(O)=C/C(=O)/C=C/c2ccc(OC(C)=O)c(OC)c2)ccc1O` [Compound 4, 4-((1E,4Z,6E)-5-hydroxy-7-(4-hydroxy-3-methoxyphenyl)-3-oxohepta-1,4,6-trien-1-yl)-2-methoxyphenyl acetate], in data set [1], the IC50 (as a rule, the concentration that inhibits the measured activity by half) turned out to be 1320 ± 700 nM and the “anti-aggregation activity” value is “inhibited the aggregation of Aβ in a concentration-dependent manner”.
As to `C=CCOC(=O)CCC(=O)Oc1ccc(/C=C/C(=O)/C=C(O)/C=C/c2ccc(OC(=O)CCC(=O)OCC=C)c(OC)c2)cc1OC` [Compound 5, diallyl O,O′-(((1E,3Z,6E)-3-hydroxy-5-oxohepta-1,3,6-triene-1,7-diyl)bis(2-methoxy-4,1-phenylene)) disuccinate], in data set [1], the “anti-aggregation activity” value is recorded as “inhibited the aggregation of Aβ in a concentration-dependent manner”. The “cytotoxicity (MTT) at 30 μM” value in data set [2] (30 μM) is reported as “exhibited cytotoxicity”. Further, in data set [3], the “inhibition of IL-6 at 30 μM” value is “complete inhibition” and the “anti-inflammatory activity (IL-6 secretion), result in words” value (from here on “anti-inflammatory activity”) was “mid-to-strong inhibition”.
For `C=CCOC(=O)CCC(=O)Oc1ccc(/C=C/C(=O)/C=C(O)/C=C/c2ccc(O)c(OC)c2)cc1OC` [Compound 6, allyl (4-((1E,4Z,6E)-5-hydroxy-7-(4-hydroxy-3-methoxyphenyl)-3-oxohepta-1,4,6-trien-1-yl)-2-methoxyphenyl) succinate], in data set [1], the IC50 came to 1770 ± 900 nM and the “anti-aggregation activity” value is “inhibited the aggregation of Aβ in a concentration-dependent manner”. In data set [2], the “cell viability (MTT)” value is given as “did not affect the cell viability”. Also, in data set [3], the “inhibition of IL-6 at 30 μM” value was “complete inhibition” and the “anti-inflammatory activity” value is recorded as “mid-to-strong inhibition”.
With `COc1cc(/C=C/C(=O)/C=C(O)/C=C/c2ccc(OC(=O)CCC(=O)OCc3ccccc3)c(OC)c2)ccc1OC(=O)CCC(=O)OCc1ccccc1` [Compound 7, dibenzyl O,O′-(((1E,3Z,6E)-3-hydroxy-5-oxohepta-1,3,6triene-1,7-diyl)bis(2-methoxy-4,1-phenylene)) disuccinate], in data set [3], the “anti-inflammatory activity” value is recorded as “did not show any anti-inflammatory activity”.
As for `COc1cc(/C=C/C(O)=C/C(=O)/C=C/c2ccc(OC(=O)CCC(=O)OCc3ccccc3)c(OC)c2)ccc1O` [Compound 8, benzyl (4-((1E,4Z,6E)-5-hydroxy-7-(4-hydroxy-3-methoxyphenyl)-3-oxohepta-1,4,6-trien-1-yl)-2-methoxyphenyl) succinate], the “anti-aggregation activity” value in data set [1] is listed as “did not present anti-aggregation activity”. The “cell viability (MTT)” value in data set [2] is “did not affect the cell viability”. In data set [3], the “inhibition of IL-6 at 30 μM” value is recorded as “complete inhibition” and the “anti-inflammatory activity” value is “mid-to-strong inhibition”.
On to `COc1cc(C=CC(=O)C=C(O)C=Cc2ccc(OC(=O)CCC(=O)OC3CCCC3)c(OC)c2)ccc1OC(=O)CCC(=O)OC1CCCC1` [Compound 9, dicyclopentyl O,O′-(((1E,3Z,6E)-3-hydroxy-5-oxohepta-1,3,6-triene-1,7-diyl)bis(2-methoxy-4,1-phenylene)) disuccinate], for which the “anti-aggregation activity” value in data set [1] is “did not present anti-aggregation activity”. In data set [3], the “anti-inflammatory activity” value is on record as “did not show any anti-inflammatory activity”.
`COc1cc(/C=C/C(O)=C/C(=O)/C=C/c2ccc(OC(=O)CCC(=O)OC3CCCC3)c(OC)c2)ccc1O` [Compound 10, cyclopentyl (4-((1E,4Z,6E)-5-hydroxy-7-(4-hydroxy-3-methoxyphenyl)-3-oxohepta-1,4,6-trien-1-yl)-2-methoxyphenyl) succinate]: in data set [1], the IC50 was 2040 ± 700 nM and the “anti-aggregation activity” value is given as “inhibited the aggregation of Aβ in a concentration-dependent manner”. Moreover, the “cell viability (MTT)” value in data set [2] is on record as “did not affect the cell viability”. Moreover, in data set [3], the “inhibition of IL-6 at 30 μM” value is given as “complete inhibition” and the “anti-inflammatory activity” value was “mid-to-strong inhibition”.
